Results taken from ChEMBL document CHEMBL6096697, “Structure-Guided Discovery of Novel N4-(Substituted Thiazol-2-yl)-N2-(4-Substituted phenyl)pyrimidine-2,4-Diamines as Potent CDK2 and CDK9 Dual Inhibitors with High Oral Bioavailability” (J Med Chem, 2025).
Active and inactive are the calls of the source. No cut-off for these calls is given here.

Columns and labels:
[1] = molecular target: Cyclin-dependent kinase 4/cyclin D1 (Homo sapiens, UniProt P11802); experiment: Inhibition of CDK4/cyclin D (unknown origin) using […] incubated for 40 mins in presence of ATP by Kinase-Glo assay; type: protein-complex assay
Chain of Cyclin-dependent kinase 4/cyclin D1 (P11802 whole entry): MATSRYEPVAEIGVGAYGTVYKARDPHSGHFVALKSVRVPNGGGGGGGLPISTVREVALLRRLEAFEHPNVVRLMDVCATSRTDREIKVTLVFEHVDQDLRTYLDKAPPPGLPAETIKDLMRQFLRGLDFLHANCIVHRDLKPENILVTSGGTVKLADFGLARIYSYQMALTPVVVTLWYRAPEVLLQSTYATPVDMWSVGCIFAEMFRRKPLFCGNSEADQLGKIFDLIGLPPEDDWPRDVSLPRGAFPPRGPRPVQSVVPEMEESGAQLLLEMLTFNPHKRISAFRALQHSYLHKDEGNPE
Chain of Cyclin-dependent kinase 4/cyclin D1 (P24385 whole entry, further chain): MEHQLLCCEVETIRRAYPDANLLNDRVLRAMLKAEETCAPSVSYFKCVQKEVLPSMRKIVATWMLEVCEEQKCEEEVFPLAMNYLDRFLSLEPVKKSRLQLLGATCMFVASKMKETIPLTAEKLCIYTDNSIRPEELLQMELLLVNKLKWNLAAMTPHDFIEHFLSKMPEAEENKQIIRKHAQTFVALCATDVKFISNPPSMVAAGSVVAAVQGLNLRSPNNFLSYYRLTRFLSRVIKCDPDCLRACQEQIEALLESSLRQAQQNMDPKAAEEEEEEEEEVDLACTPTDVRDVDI

A549 = experiment: Antiproliferative activity against human A549 cells assessed as cell growth inhibition incubated for 48 hrs by MTT assay; type: functional, cell-based; details: A549, 48 h
HCT-116 [2] = experiment: Induction of cell cycle arrest in human HCT-116 cells assessed as accumulation at S phase at 0.4 uM incubated for 24 hrs by PI staining based flow cytometry (reference value: 20.82 +/- 1.24 %); type: functional
HCT-116 [3] = experiment: Induction of apoptosis in human HCT-116 cells assessed as viable cells at 0.2 uM incubated for 24 hrs by PI staining based flow cytometry (reference value: 79.4 %); type: functional; details: read-out: Activity
HeLa [4] = experiment: Induction of apoptosis in human HeLa cells assessed as early apoptotic cells at 0.9 uM incubated for 24 hrs by PI staining based flow cytometry (reference value: 0.8 %); type: functional
HeLa [5] = experiment: Induction of apoptosis in human HeLa cells assessed as late apoptotic cells at 1.8 uM incubated for 24 hrs by PI staining based flow cytometry (reference value: 3.85 %); type: functional
HeLa [6] = experiment: Induction of apoptosis in human HeLa cells assessed as viable cells at 3.6 uM incubated for 24 hrs by PI staining based flow cytometry (reference value: 68.9 %); type: functional; details: read-out: Activity
HeLa [7] = experiment: Induction of apoptosis in human HeLa cells assessed as early apoptotic cells at 3.6 uM incubated for 24 hrs by PI staining based flow cytometry (reference value: 0.8 %); type: functional
HCT-116 [8] = experiment: Induction of apoptosis in human HCT-116 cells assessed as increase in p53 level upto 0.8 uM incubated for 24 hrs by Western blot analysis; type: functional, cell-based
[9] = AUC (0 to t) in Sprague-Dawley rat at 2 mg/kg, iv measured for 36 hrs by MRM analysis; type: ADME, organism-based; details: in vivo
[10] = Toxicity in Balb/c-nu nude mouse xenografted with human HCT-116 cells assessed as toxicity in kidney at 35 to 70 mg/kg/day, po treated for 30 days by H and E staining based analysis; type: organism-based; details: in vivo, 720 h, dose 35-70 mg/kg/day, time 30 day

IC50 [1]: 942 nM | IC50 (A549): > 30000 nM | AUC(0-t) at 36 h [9]: 33.5 ng·h/mL
SMILES: Cc1cnc(Nc2ccc(S(N)(=O)=O)cc2)nc1Nc1nccs1
Activity (HCT-116 [2]): 22.25% | viability at 0.2 µM (HCT-116 [3]): 63.1% | Activity (HeLa [4]): 65.8% | Activity (HeLa [5]): 25.9% | viability at 3.6 µM (HeLa [6]): 11.7% | Activity (HeLa [7]): 61% | Activity (HCT-116 [8]): Active | Activity [10]: Non-toxic
